ChEMBL document CHEMBL4052667 (Bioorg Med Chem, 2017)
Calls of active or inactive are those of the source. The calls are words filed in the database; no cut-off is given here.

Assays:
MDA-MB-231 [1] = assay: Induction of apoptosis in human MDA-MB-231 cells assessed as increase in cleave PARP level measured after 24 hrs by Western blot analysis; type: functional, cell-based
MDA-MB-231 [2] = assay: Induction of apoptosis in human MDA-MB-231 cells assessed as viable cells at 2.5 uM after 48 hrs by Annexin V-FITC/propidium iodide staining based flow cytometry (reference value: 94.9%); type: functional; settings: MDA-MB-231, 48 h, read-out: Activity
HCC1937 = assay: Antiproliferative activity against human HCC1937 cells after 3 days by MTT assay; type: functional, cell-based; settings: HCC1937, 72 h
MDA-MB-231 [3] = assay: Induction of apoptosis in human MDA-MB-231 cells assessed as necrotic cells at 2.5 uM after 48 hrs by Annexin V-FITC/propidium iodide staining based flow cytometry (reference value: 0.024%); type: functional
MDA-MB-231 [4] = assay: Induction of apoptosis in human MDA-MB-231 cells assessed as late apoptotic cells at 2.5 uM after 48 hrs by Annexin V-FITC/propidium iodide staining based flow cytometry (reference value: 3.82%); type: functional
MDA-MB-231 [5] = assay: Induction of apoptosis in human MDA-MB-231 cells assessed as late apoptotic cells at 10 uM after 48 hrs by Annexin V-FITC/propidium iodide staining based flow cytometry (reference value: 3.82%); type: functional
MDA-MB-231 [6] = assay: Induction of apoptosis in human MDA-MB-231 cells after 48 hrs by Annexin V-FITC/propidium iodide staining based flow cytometry; type: functional, cell-based
Raji [7] = assay: Antiproliferative activity against human Raji cells after 3 days by MTT assay; type: functional, cell-based; settings: 72 h
MDA-MB-231 [8] = assay: Antiproliferative activity against human MDA-MB-231 cells after 5 days by MTT assay; type: functional, cell-based; settings: MDA-MB-231, 120 h
MDA-MB-231 [9] = assay: Decrease in RAd51 protein level in human MDA-MB-231 cells up to 10 uM measured after 24 hrs by Western blot analysis; type: functional, cell-based
MCF-10A = assay: Antiproliferative activity against human MCF10A cells after 72 hrs by MTT assay; type: cell-based
HeLa = assay: Antiproliferative activity against human HeLa cells after 72 hrs by MTT assay; type: functional, cell-based
Homo sapiens [10] = species on record: Homo sapiens; assay: Inhibition of HDAC in human MDA-MB-231 cells assessed as increase in acetylation of histone H3K9 level up to 10 uM after 24 hrs by Western blot analysis; type: cell-based
MDA-MB-231 [11] = assay: Induction of apoptosis in human MDA-MB-231 cells assessed as increase in cleave caspase-7 level up to 10 uM measured after 24 hrs by Western blot analysis; type: functional, cell-based
MDA-MB-231 [12] = assay: Induction of apoptosis in human MDA-MB-231 cells assessed as necrotic cells at 10 uM after 48 hrs by Annexin V-FITC/propidium iodide staining based flow cytometry (reference value: 0.024%); type: functional
HCC827 = assay: Antiproliferative activity against human HCC827 cells after 72 hrs by MTT assay; type: functional, cell-based; settings: HCC827, 72 h
MDA-MB-231 [13] = assay: Induction of apoptosis in human MDA-MB-231 cells assessed as increase in cleave caspase-3 level up to 10 uM measured after 24 hrs by Western blot analysis; type: functional, cell-based
MDA-MB-231 [14] = assay: Induction of apoptosis in human MDA-MB-231 cells assessed as early apoptotic cells at 5 uM after 48 hrs by Annexin V-FITC/propidium iodide staining based flow cytometry (reference value: 1.27%); type: functional
K562 = assay: Antiproliferative activity against human K562 cells after 72 hrs by MTT assay; type: functional, cell-based; settings: K562, 72 h
MDA-MB-231 [15] = assay: Induction of apoptosis in human MDA-MB-231 cells assessed as late apoptotic cells at 5 uM after 48 hrs by Annexin V-FITC/propidium iodide staining based flow cytometry (reference value: 3.82%); type: functional
Raji [16] = assay: Potency index, ratio of SAHA IC50 to compound IC50 for human Raji cells; type: functional
T47D = assay: Antiproliferative activity against human T47D cells after 72 hrs by MTT assay; type: functional, cell-based
MDA-MB-231 [17] = assay: Induction of apoptosis in human MDA-MB-231 cells assessed as increase in gamma-H2AX level up to 10 uM after 24 hrs by Western blot analysis; type: functional, cell-based
MDA-MB-231 [18] = assay: Decrease in BRCA1 protein level in human MDA-MB-231 cells up to 10 uM measured after 24 hrs by Western blot analysis; type: functional, cell-based
MDA-MB-231 [19] = assay: Induction of apoptosis in human MDA-MB-231 cells assessed as early apoptotic cells at 10 uM after 48 hrs by Annexin V-FITC/propidium iodide staining based flow cytometry (reference value: 1.27%); type: functional
[20] = target: T1, Protein deacetylase HDAC6 (Homo sapiens, UniProt Q9UBN7); assay: Inhibition of HDAC6 (unknown origin) using acetylated peptide substrate preincubated for 15 mins followed by substrate addition measured after 60 mins by fluorescence analysis
T1 sequence (Q9UBN7 whole entry): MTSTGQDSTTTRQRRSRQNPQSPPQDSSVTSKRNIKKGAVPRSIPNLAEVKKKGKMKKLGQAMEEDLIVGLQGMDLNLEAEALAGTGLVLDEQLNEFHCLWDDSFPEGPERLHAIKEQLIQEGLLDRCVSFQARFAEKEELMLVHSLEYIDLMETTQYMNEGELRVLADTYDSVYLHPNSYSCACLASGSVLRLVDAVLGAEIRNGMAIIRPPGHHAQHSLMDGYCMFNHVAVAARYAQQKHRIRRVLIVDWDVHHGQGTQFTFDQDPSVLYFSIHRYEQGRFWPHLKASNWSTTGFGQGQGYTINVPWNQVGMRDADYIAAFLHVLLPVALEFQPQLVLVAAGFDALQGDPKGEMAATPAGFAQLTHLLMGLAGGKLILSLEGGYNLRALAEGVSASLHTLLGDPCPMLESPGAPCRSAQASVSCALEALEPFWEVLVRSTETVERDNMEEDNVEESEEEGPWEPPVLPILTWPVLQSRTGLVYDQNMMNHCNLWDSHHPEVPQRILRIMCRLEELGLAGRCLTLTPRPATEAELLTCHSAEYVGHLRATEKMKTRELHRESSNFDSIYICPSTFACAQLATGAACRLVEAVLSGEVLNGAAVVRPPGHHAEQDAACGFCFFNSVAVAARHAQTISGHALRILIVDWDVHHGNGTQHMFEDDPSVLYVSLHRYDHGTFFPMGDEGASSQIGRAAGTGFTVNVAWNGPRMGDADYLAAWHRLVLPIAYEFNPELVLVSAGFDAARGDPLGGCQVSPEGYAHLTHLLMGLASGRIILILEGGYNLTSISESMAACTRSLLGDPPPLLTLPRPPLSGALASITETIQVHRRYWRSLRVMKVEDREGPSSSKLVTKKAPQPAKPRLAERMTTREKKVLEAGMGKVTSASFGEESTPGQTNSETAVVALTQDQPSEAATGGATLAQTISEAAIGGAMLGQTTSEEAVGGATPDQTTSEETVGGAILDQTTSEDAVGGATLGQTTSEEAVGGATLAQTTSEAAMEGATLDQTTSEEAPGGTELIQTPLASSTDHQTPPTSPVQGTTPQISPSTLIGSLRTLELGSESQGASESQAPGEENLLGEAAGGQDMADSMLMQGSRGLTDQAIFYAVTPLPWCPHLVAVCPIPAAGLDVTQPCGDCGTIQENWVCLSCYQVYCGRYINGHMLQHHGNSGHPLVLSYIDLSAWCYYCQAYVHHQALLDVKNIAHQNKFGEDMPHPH

[21] = target: Poly [ADP-ribose] polymerase 2 (Homo sapiens, UniProt Q9UGN5); assay: Inhibition of recombinant human N-terminal GST-tagged PARP2 (2 to 583 residues) expressed in baculovirus infected Sf9 cells using biotinylated substrate after 1 hr by UV/Vis spectrophotometric analysis
[22] = Safety index, ratio of compound IC50 to SAHA IC50 for human MCF10A cells; type: ADME, cell-based, MCF-10A; settings: read-out: Ratio IC50
MDA-MB-231 [23] = assay: Induction of apoptosis in human MDA-MB-231 cells assessed as increase in cleave caspase-8 level up to 10 uM measured after 24 hrs by Western blot analysis; type: functional, cell-based
Histone deacetylase 1 = Histone deacetylase 1 (Homo sapiens, UniProt Q13547); assay: Inhibition of HDAC1 (unknown origin) using acetylated peptide substrate preincubated for 15 mins followed by substrate addition measured after 60 mins by fluorescence analysis
Homo sapiens [24] = species on record: Homo sapiens; assay: Inhibition of HDAC in human MDA-MB-231 cells assessed as increase in hyperacetylation of histone H4K8 level up to 10 uM after 24 hrs by Western blot analysis; type: cell-based
[25] = target: Poly [ADP-ribose] polymerase 1 (Homo sapiens, UniProt P09874); assay: Inhibition of recombinant full length human N-terminal GST-tagged PARP1 expressed in baculovirus infected Sf9 cells using biotinylated substrate after 1 hr by UV/Vis spectrophotometric analysis
MDA-MB-231 [26] = assay: Induction of apoptosis in human MDA-MB-231 cells assessed as viable cells at 5 uM after 48 hrs by Annexin V-FITC/propidium iodide staining based flow cytometry (reference value: 94.9%); type: functional; settings: MDA-MB-231, 48 h, read-out: Activity
MDA-MB-231 [27] = assay: Induction of apoptosis in human MDA-MB-231 cells assessed as necrotic cells at 5 uM after 48 hrs by Annexin V-FITC/propidium iodide staining based flow cytometry (reference value: 0.024%); type: functional
MDA-MB-231 [28] = assay: Induction of apoptosis in human MDA-MB-231 cells assessed as reduction in full length PARP level measured after 24 hrs by Western blot analysis; type: functional, cell-based
MDA-MB-231 [29] = assay: Induction of apoptosis in human MDA-MB-231 cells assessed as early apoptotic cells at 2.5 uM after 48 hrs by Annexin V-FITC/propidium iodide staining based flow cytometry (reference value: 1.27%); type: functional
MCF7 = assay: Antiproliferative activity against human MCF7 cells after 72 hrs by MTT assay; type: functional, cell-based; settings: MCF7, 72 h
U-937 = assay: Antiproliferative activity against human U937 cells after 72 hrs by MTT assay; type: functional, cell-based; settings: U-937, 72 h
MDA-MB-231 [30] = assay: Induction of apoptosis in human MDA-MB-231 cells assessed as increase in cleave caspase-9 level at 10 uM measured after 24 hrs by Western blot analysis; type: functional, cell-based
MDA-MB-231 [31] = assay: Induction of apoptosis in human MDA-MB-231 cells assessed as viable cells at 10 uM after 48 hrs by Annexin V-FITC/propidium iodide staining based flow cytometry (reference value: 94.9%); type: functional; settings: MDA-MB-231, 48 h, read-out: Activity
MDA-MB-231 [32] = assay: Antiproliferative activity against human MDA-MB-231 cells after 72 hrs by MTT assay; type: functional, cell-based; settings: MDA-MB-231, 72 h

Sequence of Poly [ADP-ribose] polymerase 2 (Q9UGN5 whole entry, the tested form may be a part): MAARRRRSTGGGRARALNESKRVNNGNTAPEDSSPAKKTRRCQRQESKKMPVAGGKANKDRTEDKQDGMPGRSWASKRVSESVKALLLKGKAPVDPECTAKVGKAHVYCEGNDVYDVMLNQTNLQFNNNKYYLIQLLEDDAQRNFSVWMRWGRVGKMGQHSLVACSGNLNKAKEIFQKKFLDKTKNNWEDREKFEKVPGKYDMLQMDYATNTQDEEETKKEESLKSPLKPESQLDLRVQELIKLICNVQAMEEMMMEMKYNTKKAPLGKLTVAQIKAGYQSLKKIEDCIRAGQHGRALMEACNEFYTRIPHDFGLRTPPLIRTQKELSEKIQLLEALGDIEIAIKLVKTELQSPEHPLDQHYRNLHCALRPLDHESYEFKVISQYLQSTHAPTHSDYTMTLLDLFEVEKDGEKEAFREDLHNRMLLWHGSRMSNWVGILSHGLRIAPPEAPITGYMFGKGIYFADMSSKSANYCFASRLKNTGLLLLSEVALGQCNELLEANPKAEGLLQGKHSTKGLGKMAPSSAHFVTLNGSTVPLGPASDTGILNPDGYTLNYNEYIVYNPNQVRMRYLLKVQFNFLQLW
Sequence of Poly [ADP-ribose] polymerase 1 (P09874 whole entry): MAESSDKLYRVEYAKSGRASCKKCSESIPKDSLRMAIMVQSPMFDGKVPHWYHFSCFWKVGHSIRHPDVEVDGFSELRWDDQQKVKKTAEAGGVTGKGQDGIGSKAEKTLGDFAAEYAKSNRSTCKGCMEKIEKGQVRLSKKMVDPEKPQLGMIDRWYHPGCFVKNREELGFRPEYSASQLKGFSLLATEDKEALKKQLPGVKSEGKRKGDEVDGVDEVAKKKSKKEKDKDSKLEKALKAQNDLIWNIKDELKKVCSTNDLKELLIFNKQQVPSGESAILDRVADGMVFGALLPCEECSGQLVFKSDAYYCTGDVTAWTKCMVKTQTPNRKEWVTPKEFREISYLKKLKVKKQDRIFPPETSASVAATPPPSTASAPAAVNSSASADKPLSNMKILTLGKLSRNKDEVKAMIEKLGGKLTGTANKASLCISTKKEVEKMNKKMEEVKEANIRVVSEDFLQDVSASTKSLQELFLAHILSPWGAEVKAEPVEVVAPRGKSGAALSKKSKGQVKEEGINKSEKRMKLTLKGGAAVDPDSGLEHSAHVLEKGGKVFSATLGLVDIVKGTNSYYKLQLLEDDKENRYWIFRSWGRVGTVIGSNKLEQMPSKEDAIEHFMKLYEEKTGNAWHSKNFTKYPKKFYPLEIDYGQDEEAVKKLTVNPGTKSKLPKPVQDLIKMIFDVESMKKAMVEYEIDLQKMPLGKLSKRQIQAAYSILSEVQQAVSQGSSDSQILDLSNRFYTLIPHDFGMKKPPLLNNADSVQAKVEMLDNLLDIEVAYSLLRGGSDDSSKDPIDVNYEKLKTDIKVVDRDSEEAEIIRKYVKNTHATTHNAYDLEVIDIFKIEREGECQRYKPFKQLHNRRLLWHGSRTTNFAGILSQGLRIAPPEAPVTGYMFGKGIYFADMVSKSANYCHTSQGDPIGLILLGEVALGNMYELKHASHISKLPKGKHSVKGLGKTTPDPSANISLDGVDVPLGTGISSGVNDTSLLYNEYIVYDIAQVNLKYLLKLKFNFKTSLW
Sequence of Histone deacetylase 1 (Q13547 whole entry): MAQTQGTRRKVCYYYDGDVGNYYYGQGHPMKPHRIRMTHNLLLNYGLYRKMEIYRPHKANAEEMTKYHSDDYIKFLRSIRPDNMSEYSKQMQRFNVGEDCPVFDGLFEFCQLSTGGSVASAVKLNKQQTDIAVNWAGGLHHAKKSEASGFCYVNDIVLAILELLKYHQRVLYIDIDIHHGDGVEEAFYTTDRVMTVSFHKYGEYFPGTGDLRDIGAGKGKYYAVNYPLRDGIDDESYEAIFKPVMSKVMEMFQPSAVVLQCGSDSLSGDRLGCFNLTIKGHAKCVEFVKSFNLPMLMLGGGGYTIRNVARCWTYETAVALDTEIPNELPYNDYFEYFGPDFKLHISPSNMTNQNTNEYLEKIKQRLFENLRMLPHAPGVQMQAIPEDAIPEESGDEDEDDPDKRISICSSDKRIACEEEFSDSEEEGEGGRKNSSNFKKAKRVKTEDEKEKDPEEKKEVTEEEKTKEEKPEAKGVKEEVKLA

O=C(/C=C/c1ccc(CCNC(=O)c2cc(Cc3n[nH]c(=O)c4ccccc34)ccc2F)cc1)NO
Activity (MDA-MB-231 [1]): Dose-dependent effect | viability at 2.5 µM (MDA-MB-231 [2]): 79.2% | IC50 (HCC1937): 2.02 µM | Activity (MDA-MB-231 [3]): 2.29% | Activity (MDA-MB-231 [4]): 8.03% | Activity (MDA-MB-231 [5]): 45.8% | Activity (MDA-MB-231 [6]): Dose-dependent effect | IC50 (Raji [7]): 1.29 µM | IC50 (MDA-MB-231 [8]): 0.22 µM | Activity (MDA-MB-231 [9]): Active | IC50 (MCF-10A): 8.65 µM | IC50 (HeLa): 5.1 µM | inhibition (Homo sapiens [10]): Active | Activity (MDA-MB-231 [11]): Active | Activity (MDA-MB-231 [12]): 0.447% | IC50 (HCC827): 1.79 µM | Activity (MDA-MB-231 [13]): Active | Activity (MDA-MB-231 [14]): 28.6% | IC50 (K562): 5.55 µM | Activity (MDA-MB-231 [15]): 33.5% | Ratio IC50 (Raji [16]): 7 | IC50 (T47D): 2.14 µM | Activity (MDA-MB-231 [17]): Active | Activity (MDA-MB-231 [18]): Active | Activity (MDA-MB-231 [19]): 47% | IC50 [20]: 0.00821 µM | IC50 [21]: 0.00502 µM | selectivity ratio [22]: 4.1 | Activity (MDA-MB-231 [23]): Active | IC50 (Histone deacetylase 1): 0.0273 µM | inhibition (Homo sapiens [24]): Active | IC50 [25]: 0.0682 µM | viability at 5 µM (MDA-MB-231 [26]): 35.1% | Activity (MDA-MB-231 [27]): 2.79% | Activity (MDA-MB-231 [28]): Dose-dependent effect | Activity (MDA-MB-231 [29]): 10.4% | IC50 (MCF7): 3.55 µM | IC50 (U-937): 4.5 µM | Activity (MDA-MB-231 [30]): Active | viability at 10 µM (MDA-MB-231 [31]): 6.79% | IC50 (MDA-MB-231 [32]): 1.54 µM

O=C(CCCCCCC(=O)Nc1ccccc1)NO [VORINOSTAT]
IC50 (MCF-10A): 2.11 µM

O=C(c1cc(Cc2n[nH]c(=O)c3ccccc23)ccc1F)N1CCN(C(=O)C2CC2)CC1 [OLAPARIB]
IC50 (HCC1937): 8.65 µM | IC50 (Raji [7]): > 50 µM | IC50 (MDA-MB-231 [8]): 7.92 µM | IC50 (MCF-10A): > 50 µM | IC50 (HeLa): > 50 µM | IC50 (HCC827): > 50 µM | IC50 (K562): > 50 µM | IC50 (T47D): > 50 µM | IC50 (MCF7): 35.2 µM | IC50 (U-937): 21.8 µM | IC50 (MDA-MB-231 [32]): 39.5 µM
